How the values were obtained:
Format in all cases: cell-based
[1] = biological target: T1, AKT1 (Homo sapiens, UniProt P31749); experiment: Western Blot, degradation of AKT1 protein in H1975-OR cells; conditions: 24 hours, maximum degradation rate; for Dmax at 1 µM: 1000 nM
T1 construct: AKT1, AKT2, and AKT3 proteins in H1975-OR cells; endogenous in cells; host or cells: H1975-OR (osimertinib-resistant H1975)
Method: (§1) Cell line: Non-small cell lung cancer H1975-OR cell line, which is an Osimertinib resistant H1975 cell line, and could be obtained through low dose gradual addition culture. Specific method: H1975 cells were spread in a 10 cm culture dish at a convergence rate of 60-70%, added 50 nM of Osimertinib to the culture medium. After the cell state stabilized, the concentration of Osimertinib was gradually double to 3 μM.
(§2) Conventional Western Blot (immunoblotting) was used for detection, as follows: a certain number of H1975-OR cells were planted on a 96 well plate, adherent cultured in an incubator overnight, and added a certain concentration of compound to act for 24 hours. 1×SDS lysis buffer with protease and phosphatase inhibitors was used to lyse cells. Cell lysates were separated by SDS-PAGE and transferred to PVDF membrane. Then, at room temperature, the PCDF membrane was taken out and immersed in a sealing solution (5% BSA TBS solution containing 0.5% Tween-20) for sealing treatment for 1 hour, and then incubated with a specific primary antibody at 4° C. overnight. The imprints were washed with TBST and incubated with horseradish peroxidase (HRP) labeled secondary antibodies at room temperature for 2 hours. Finally, ECL plus fluorescence detection reagent (Thermo Scientific, Waltham, MA) was used for protein development, and the Amersham Imager 600 system (GE, America) was used for photography. The detection results were processed using ImageJ software to obtain the grayscale value G (Density).

[2] = biological target: T2, AKT2 (Homo sapiens, UniProt P31751); experiment: Western Blot, degradation of AKT2 protein in H1975-OR cells; conditions: 24 hours, maximum degradation rate; for Dmax at 1 µM: 1000 nM
T2 construct: AKT1, AKT2, and AKT3 proteins in H1975-OR cells; endogenous in cells; host or cells: H1975-OR (osimertinib-resistant H1975)
T2 sequence (P31751 whole entry): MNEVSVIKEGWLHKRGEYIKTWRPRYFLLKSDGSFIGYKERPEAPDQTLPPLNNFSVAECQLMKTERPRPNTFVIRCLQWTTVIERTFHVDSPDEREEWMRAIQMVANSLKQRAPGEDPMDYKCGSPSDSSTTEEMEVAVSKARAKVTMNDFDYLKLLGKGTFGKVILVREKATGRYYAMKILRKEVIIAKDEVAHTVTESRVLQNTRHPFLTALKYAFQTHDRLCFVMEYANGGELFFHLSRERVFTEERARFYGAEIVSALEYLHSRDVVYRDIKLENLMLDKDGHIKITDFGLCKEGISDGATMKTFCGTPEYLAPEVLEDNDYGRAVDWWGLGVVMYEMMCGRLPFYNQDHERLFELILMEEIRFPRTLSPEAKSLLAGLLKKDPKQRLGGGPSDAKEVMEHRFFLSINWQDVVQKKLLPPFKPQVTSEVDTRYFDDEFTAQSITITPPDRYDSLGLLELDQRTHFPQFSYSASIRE
Method: as §1, §2

[3] = test system: H1975; experiment: CCK-8 tumor cell proliferation, H1975; conditions: 72 hours
Method: (§3) Tumor cells (see Table 2 to Table 5) were inoculated in 96-well plates in complete culture medium (2000-3000 cells/well). After overnight incubation, the compounds with different concentrations (0.000508 μM-10 μM) were used to treat the cells separately for 72 hours. CCK-8 (Cell Counting Kit 8, Dojindo Laboratories, Kumamoto, Japan) experiment was used to evaluate cell proliferation. GraphPad Prism 5.0 software (La Jolla, CA) was used to calculate the half-maximal inhibitory concentration (IC50) values by fitting the concentration response curve. Each IC50 value was represented as an average value±SD.

[4] = test system: H1975OR; experiment: CCK-8 tumor cell proliferation, H1975OR; conditions: H1975OR cells (Osimertinib resistant), 72 hours
Method: as §1, §3

[5] = test system: PC-9; experiment: CCK-8 tumor cell proliferation, PC-9; conditions: PC-9 cells, 72 hours
Method: as §3

[6] = test system: A431; experiment: CCK-8 tumor cell proliferation, A431; conditions: 72 hours
Method: as §3

[7] = test system: HCC827; experiment: CCK-8 tumor cell proliferation, HCC827; conditions: HCC827 cells, 72 hours
Method: as §3

[8] = test system: H1299; experiment: CCK-8 tumor cell proliferation, H1299; conditions: 72 hours
Method: as §3

[9] = biological target: AKT3 (Homo sapiens, UniProt Q9Y243); experiment: Western Blot, degradation of AKT3 protein in H1975-OR cells; set-up: endogenous in cells; host or cells: H1975-OR (osimertinib-resistant H1975); conditions: 24 hours, maximum degradation rate; for Dmax at 1 µM: 1000 nM
Sequence of AKT3 (Q9Y243 whole entry): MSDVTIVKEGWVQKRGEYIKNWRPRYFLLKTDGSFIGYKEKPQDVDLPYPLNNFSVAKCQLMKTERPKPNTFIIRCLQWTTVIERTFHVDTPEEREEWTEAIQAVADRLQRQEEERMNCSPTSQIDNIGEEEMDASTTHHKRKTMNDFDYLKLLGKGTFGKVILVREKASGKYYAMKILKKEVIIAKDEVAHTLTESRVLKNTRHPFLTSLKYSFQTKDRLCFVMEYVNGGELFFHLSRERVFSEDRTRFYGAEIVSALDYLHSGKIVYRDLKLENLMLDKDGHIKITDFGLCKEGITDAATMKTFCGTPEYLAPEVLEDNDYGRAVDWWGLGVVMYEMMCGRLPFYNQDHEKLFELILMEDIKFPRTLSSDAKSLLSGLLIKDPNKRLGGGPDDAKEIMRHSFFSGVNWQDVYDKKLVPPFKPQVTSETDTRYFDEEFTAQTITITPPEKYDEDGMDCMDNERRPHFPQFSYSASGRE
Method: as §1, §2

[10] = Homo sapiens, NCI-H1975, H1975 cells
[11] = Homo sapiens, A-431, A431 cells
[12] = Homo sapiens, NCI-H1299, H1299 cells

T1 sequence (P31749 whole entry): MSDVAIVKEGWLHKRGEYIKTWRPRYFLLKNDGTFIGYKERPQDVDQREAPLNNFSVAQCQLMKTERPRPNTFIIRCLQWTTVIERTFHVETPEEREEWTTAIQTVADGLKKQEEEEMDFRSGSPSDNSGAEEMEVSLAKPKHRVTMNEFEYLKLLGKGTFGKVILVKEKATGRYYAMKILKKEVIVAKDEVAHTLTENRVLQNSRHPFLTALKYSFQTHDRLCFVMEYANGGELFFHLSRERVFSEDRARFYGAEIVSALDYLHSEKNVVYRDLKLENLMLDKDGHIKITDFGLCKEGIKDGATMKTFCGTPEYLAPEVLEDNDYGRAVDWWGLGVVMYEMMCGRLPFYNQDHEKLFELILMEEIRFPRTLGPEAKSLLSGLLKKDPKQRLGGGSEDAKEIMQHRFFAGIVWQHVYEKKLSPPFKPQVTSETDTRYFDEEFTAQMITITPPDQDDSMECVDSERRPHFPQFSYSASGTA

Row | Structure (SMILES) | Dmax at 1 µM [1] | Dmax at 1 µM [2] | IC50 [3, 10] | IC50 [4] | IC50 ([5]; Homo sapiens) | IC50 [6, 11] | IC50 ([7]; Homo sapiens) | IC50 [8, 12] | Dmax at 1 µM [9] | Dmax (%) at 1000 nM AKT1 [1] | Dmax (%) at 1000 nM AKT2 [2] | IC50 ([3]; H1975 cells) | IC50 [5] | IC50 ([6]; A431 cells) | IC50 [7] | IC50 ([8]; H1299 cells) | Dmax (%) at 1000 nM AKT3 [9]
1 | C=CC(=O)Nc1cccc(-n2c(=O)cc(C)c3cnc(Nc4ccc(N5CCN(CCOCCOCCNC(=O)CC67CC8CC(CC(C8)C6)C7)CC5)cc4OC)nc32)c1 [ZX-HYT-01] | 59.2% | 27.2% | 3.27 ± 0.598 µM | 2.01 ± 0.444 µM | 1.57 ± 0.258 µM | 0.541 ± 0.0589 µM | 0.141 ± 0.0372 µM | 10.4 ± 1.72 µM | 67.6% | – | – | – | – | – | – | – | –
2 | C=CC(=O)Nc1cccc(-n2c(=O)cc(C)c3cnc(Nc4ccc(N5CCN(CCCCCCCCCCCCNC(=O)CC67CC8CC(CC(C8)C6)C7)CC5)cc4OC)nc32)c1 [ZX-HYT-05, N-(3-(2-((4-(4-(12-(2-(((3R, 5R, 7R)-adamantan-1-yl)acetylamino)dodecyl)piperazin-1-yl)-2-methoxyphenyl)amino)-5-methyl-7-oxypyridino [2,3-d]pyrimidin-8 (7H)-yl)phenyl)acrylamide] | 34.4% | 29.9% | 5.19 ± 4.59 µM | 0.009 ± 0.002 µM | 0.0083 ± 0.000333 µM | 0.00806 ± 0.0003 µM | 0.126 ± 0.0216 µM | 0.338 ± 0.0855 µM | 71.9% | – | – | – | – | – | – | – | –
3 | C=CC(=O)Nc1cccc(-n2c(=O)cc(C)c3cnc(Nc4ccc(N5CCN(C(=O)CCCCCCCCCCCNC(=O)CC67CC8CC(CC(C8)C6)C7)CC5)cc4OC)nc32)c1 [ZX-HYT-07, N-(3-(2-((4-(4-(12-(2-((3R, 5R, 7R)-adamantan-1-yl)acetylamino)dodecanoyl)piperazin-1-yl)-2-methoxyphenyl)amino)-5-methyl-7-oxypyridino [2,3-d]pyrimidin-8 (7H)-yl)phenyl) acrylamide] | – | – | – | 0.417 ± 0.08 µM | – | – | – | – | – | 0% | 0% | 5.07 ± 0.836 µM | 6.79 ± 3.6 µM | 0.0839 ± 0.0133 µM | 0.882 ± 0.0945 µM | 1.46 ± 0.428 µM | 69.2%
4 | CCC(=O)Nc1cccc(-n2c(=O)cc(C)c3cnc(Nc4ccc(N5CCN(CCCCCCCCCCCCNC(=O)CC67CC8CC(CC(C8)C6)C7)CC5)cc4OC)nc32)c1 [ZX-HYT-08, N-(3-(2-((4-(4-(12-(2-((3R, 5R, 7R)-adamantan-1-yl)acetylamino)dodecyl)piperazin-1-yl)-2-methoxyphenyl)amino)-5-methyl-7-oxypyridino [2,3-d]pyrimidin-8 (7H)-yl)phenyl) propionamide] | 0% | 0% | 8.47 µM | 0.0107 ± 0.003 µM | 0.109 ± 0.019 µM | 0.00986 ± 0.0022 µM | 0.157 ± 0.0679 µM | 0.212 ± 0.0153 µM | 66.8% | – | – | – | – | – | – | – | –
5 | C=CC(=O)Nc1ccc(-n2c(=O)cc(C)c3cnc(Nc4ccc(N5CCN(CCCCCCCCCCCCNC(=O)CC67CC8CC(CC(C8)C6)C7)CC5)cc4OC)nc32)cc1 [ZX-HYT-14, N-(4-(2-((4-(4-(12-(2-(((3R, 5R, 7R)-adamantan-1-yl)acetylamino)dodecyl)piperazin-1-yl)-2-methoxyphenyl)amino)-5-methyl-7-oxypyridino [2,3-d]pyrimidin-8 (7H)-yl)phenyl)acrylamide] | – | – | > 10 µM | > 10 µM | > 10 µM | > 10 µM | > 10 µM | > 10 µM | – | – | – | – | – | – | – | – | –
6 | COc1cc(N2CCN(CCCCCCCCCCCCNC(=O)CC34CC5CC(CC(C5)C3)C4)CC2)ccc1Nc1ncc2c(C)cc(=O)n(-c3ccc(NC(=O)C4CC4)cc3)c2n1 [ZX-HYT-15, N-(4-(2-((4-(4-(12-(2-(((3R, 5R, 7R)-adamantan-1-yl)acetylamino)dodecyl)piperazin-1-yl)-2-methoxyphenyl)amino)-5-methyl-7-oxypyridino [2,3-d]pyrimidin-8 (7H)-yl)phenyl)cyclopropane formamide] | – | – | > 10 µM | > 10 µM | 4.8 ± 0.501 µM | > 10 µM | > 10 µM | > 10 µM | – | – | – | – | – | – | – | – | –

Continued by falling IC50 [3, 10], values first:

Row | Dmax at 1 µM [1] | Dmax at 1 µM [2] | IC50 [3, 10] | IC50 [4] | IC50 ([5]; Homo sapiens) | IC50 [6, 11] | IC50 ([7]; Homo sapiens) | IC50 [8, 12] | Dmax at 1 µM [9] | Structure (SMILES) | Dmax (%) at 1000 nM AKT1 [1] | Dmax (%) at 1000 nM AKT2 [2] | IC50 ([3]; H1975 cells) | IC50 [5] | IC50 ([6]; A431 cells) | IC50 [7] | IC50 ([8]; H1299 cells) | Dmax (%) at 1000 nM AKT3 [9]
7 | 0% | 0% | 1.77 ± 0.187 µM | 0.083 ± 0.019 µM | 0.0181 ± 0.00105 µM | 0.0102 ± 0.002 µM | 0.0555 ± 0.0327 µM | 0.305 ± 0.166 µM | 26.6% | C=CC(=O)Nc1cccc(-n2c(=O)cc(C)c3cnc(Nc4ccc(N5CCN(CCCCCCCCCCNC(=O)CC67CC8CC(CC(C8)C6)C7)CC5)cc4OC)nc32)c1 [ZX-HYT-04, N-(3-(2-((4-(4-(10-(2-(((3R, 5R, 7R)-adamantan-1-yl)acetylamino)decyl)piperazin-1-yl)-2-methoxyphenyl)amino)-5-methyl-7-oxypyridino [2,3-d]pyrimidin-8 (7H)-yl)phenyl)acrylamide] | – | – | – | – | – | – | – | –
8 | 78.9% | 64.8% | 0.844 ± 0.822 µM | 0.074 ± 0.004 µM | 0.0536 ± 0.00753 µM | 0.0299 ± 0.0028 µM | 0.0954 ± 0.0331 µM | 0.876 ± 0.283 µM | 89.1% | C=CC(=O)Nc1cccc(-n2c(=O)cc(C)c3cnc(Nc4ccc(N5CCN(CCCCCCCCNC(=O)CC67CC8CC(CC(C8)C6)C7)CC5)cc4OC)nc32)c1 [ZX-HYT-03, N-(3-(2-((4-(4-(8-(2-(((3R, 5R, 7R)-adamantan-1-yl)acetamido)octyl)piperazin-1-yl)-2-methoxyphenyl)amino)-5-methyl-7-oxypyridino [2,3-d]pyrimidin-8 (7H)-yl)phenyl)acrylamide] | – | – | – | – | – | – | – | –
9 | 0% | 47% | 0.837 ± 0.11 µM | 0.125 ± 0.012 µM | 0.0732 ± 0.00431 µM | 0.26 ± 0.047 µM | 0.163 ± 0.0134 µM | 0.163 ± 0.0134 µM | 62.9% | C=CC(=O)Nc1cccc(-n2c(=O)cc(C)c3cnc(Nc4ccc(N5CCN(CCCCCCCCCCCCCCNC(=O)CC67CC8CC(CC(C8)C6)C7)CC5)cc4OC)nc32)c1 [ZX-HYT-06, N-(3-(2-((4-(4-(14-(2-((3R, 5R, 7R)-adamantan-1-yl)acetylamino)tetradecyl)piperazin-1-yl)-2-methoxyphenyl)amino)-5-methyl-7-oxypyridino [2,3-d]pyrimidin-8 (7H)-yl)phenyl) acrylamide] | – | – | – | – | – | – | – | –
10 | 0% | 0% | 0.194 ± 0.063 µM | 0.167 ± 0.025 µM | 0.255 ± 0.0394 µM | 0.102 ± 0.0095 µM | 0.105 ± 0.00819 µM | 8.74 ± 1.12 µM | 30.8% | C=CC(=O)Nc1cccc(-n2c(=O)cc(C)c3cnc(Nc4ccc(N5CCN(CCCCCCNC(=O)CC67CC8CC(CC(C8)C6)C7)CC5)cc4OC)nc32)c1 [ZX-HYT-02, N-(3-(2-((4-(4-(6-(2-(((3R, 5R, 7R)-adamantan-1-yl)acetamido)hexyl)piperazin-1-yl)-2-methoxyphenyl)amino)-5-methyl-7-oxypyridino [2,3-d]pyrimidin-8 (7H)-yl)phenyl)acrylamide] | – | – | – | – | – | – | – | –
11 | 0% | 25.3% | 0.142 ± 0.0494 µM | 0.0196 ± 0.00141 µM | 0.126 ± 0.0177 µM | 0.0517 µM | 0.309 ± 0.139 µM | 1.81 ± 0.395 µM | 57.1% | COc1cc(N2CCN(CCCCCCCCCCCCNC(=O)CC34CC5CC(CC(C5)C3)C4)CC2)ccc1Nc1ncc2c(C)cc(=O)n(-c3cccc(NC(=O)C(C)C)c3)c2n1 [ZX-HYT-10, N-(3-(2-((4-(4-(12-(2-(((3R, 5R, 7R)-adamantan-1-yl)acetylamino)dodecyl)piperazin-1-yl)-2-methoxyphenyl)amino)-5-methyl-7-oxypyridino [2,3-d]pyrimidin-8 (7H)-yl)phenyl)isobutylamide] | – | – | – | – | – | – | – | –
12 | 0% | 0% | 0.119 ± 0.0112 µM | 0.0236 ± 0.00351 µM | 0.215 ± 0.0636 µM | 0.0106 ± 0.002 µM | 0.134 ± 0.064 µM | 0.624 ± 0.0448 µM | 75.7% | COc1cc(N2CCN(CCCCCCCCCCCCNC(=O)CC34CC5CC(CC(C5)C3)C4)CC2)ccc1Nc1ncc2c(C)cc(=O)n(-c3cccc(NC(C)=O)c3)c2n1 [ZX-HYT-09, N-(12-(4-(4-((8-(3-acetylaminophenyl)-5-methyl-7-oxy-7,8-dihydropyridino [2,3-d]pyrimidin-2-yl]amino)-3-methoxyphenyl)piperazin-1-yl)dodecyl)-2-((3R, 5R, 7R)-adamantan-1-yl) acetamide] | – | – | – | – | – | – | – | –
